Assay results reported in publication doi:10.64898/2025.12.15.694265, “Small molecule inhibitor of PPARγ acetylation promotes insulin sensitization and browning of white adipose tissue with improved safety” (bioRxiv, 2025).

Legend:
[1] = molecular target: T1, PPARγ (Homo sapiens, UniProt P37231); test: 3xPPRE luciferase reporter in HEK293 cells, antagonism of Rosi activation; format: cell-based
T1 construct: gene PPARG; human PPARγ2 expressed in HEK-293 cells
T1 sequence (P37231 1-505): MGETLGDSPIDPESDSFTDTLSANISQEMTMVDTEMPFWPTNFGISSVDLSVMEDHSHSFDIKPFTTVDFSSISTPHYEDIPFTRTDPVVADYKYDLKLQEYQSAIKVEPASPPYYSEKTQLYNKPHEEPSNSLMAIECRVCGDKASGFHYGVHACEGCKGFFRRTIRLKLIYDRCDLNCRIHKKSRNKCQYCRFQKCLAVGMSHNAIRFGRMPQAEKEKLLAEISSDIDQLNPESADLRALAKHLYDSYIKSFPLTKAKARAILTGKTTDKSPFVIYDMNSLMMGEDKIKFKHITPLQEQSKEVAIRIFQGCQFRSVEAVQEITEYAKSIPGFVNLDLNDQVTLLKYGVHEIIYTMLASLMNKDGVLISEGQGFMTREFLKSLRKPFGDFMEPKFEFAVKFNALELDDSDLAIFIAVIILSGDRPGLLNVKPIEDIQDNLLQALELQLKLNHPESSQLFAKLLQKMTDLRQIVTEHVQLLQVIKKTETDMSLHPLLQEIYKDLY

[2] = molecular target: T2, PPARγ (Homo sapiens, UniProt P37231); test: X-ray co-crystal structure at […] Å; fluorescence polarization competition binding with GST-tagged LBD
T2 construct: gene PPARG
T2 sequence (P37231 223-505): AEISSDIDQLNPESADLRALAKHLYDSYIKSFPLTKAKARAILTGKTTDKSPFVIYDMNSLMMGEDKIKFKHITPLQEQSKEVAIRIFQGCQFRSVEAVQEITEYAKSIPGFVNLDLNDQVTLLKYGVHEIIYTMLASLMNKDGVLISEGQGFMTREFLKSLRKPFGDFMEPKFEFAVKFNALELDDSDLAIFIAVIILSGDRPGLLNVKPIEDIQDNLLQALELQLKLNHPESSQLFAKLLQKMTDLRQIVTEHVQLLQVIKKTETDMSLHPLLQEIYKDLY

| Structure (SMILES) | 3xPPRE luciferase reporter in HEK293 cells, antagonism of Rosi activation [1] | IC50 [2] |
| --- | --- | --- |
| O=C(Nc1ccccc1)c1cc([N+](=O)[O-])ccc1Cl [GW, GW9662] | GW9662 significantly diminished the activation of 3xPPRE reporter by Rosi |  |
| N#Cc1c(C2CCCCC2)nc(Sc2ccc(C(F)(F)F)cc2[N+](=O)[O-])[nH]c1=O [TPMD, 4-cyclohexyl-2-((2-nitro-4-(trifluoromethyl)phenyl)thio)-6-oxo-1,6-dihydropyrimidine-5-carbonitrile] |  | ~5 µM |
